The values below come from ChEMBL document CHEMBL3507680, “University of Dundee, Gates Library screen for HepG2 cell viability”.

This series is described as follows: Human HepG2 cell viability assay in 384 well format. Details: dose 125 nL, time 70.5 hour; concentration not given beside the values. It is filed as toxicity, cell-based. As to conditions: HepG2 cells, read-out: Inhibition.
Regarding `CCOCCn1nc(C)cc1C(=O)N1CC[C@](C)(O)[C@H](C)C1`, the cytotoxicity at 70.5 h was -8.61%.

Turning to `CC(C)CN(Cc1ccc(C(F)(F)F)nc1)Cc1cnn(C)c1`, the cytotoxicity at 70.5 h is -3.14%.

Turning to `CC1N(C)C(=O)COC12CCN(Cc1nccs1)CC2` (centres undefined), the cytotoxicity at 70.5 h was -9.04%.

Take `CC(C)c1nn(C)c(N2CCOCC2)c1CNCCS(C)(=O)=O`: the cytotoxicity at 70.5 h is 3.3%.

With `C[S+]([O-])c1nncn1CC(=O)c1cccc(C(F)(F)F)c1` (centres undefined), the cytotoxicity at 70.5 h is -1.93%.

On to `CN1CCN(C(=O)Cc2ccsc2)Cc2cccnc21`, for which the cytotoxicity at 70.5 h was -1.77%.

With `Cn1cnc(S(=O)(=O)N2CCO[C@H]3[C@@H](OCC4CC4)CC[C@@H]32)c1`, the cytotoxicity at 70.5 h was determined as 11.1%.

With `CN(C(=O)CCOc1ccccc1)C1CCN(CC2CCOC2)CC1` (centres undefined), the cytotoxicity at 70.5 h was -8.86%.

For the molecule `c1ccc(-c2nnc(CN3CCCC(Cn4cncn4)C3)o2)cc1` (centres undefined), the cytotoxicity at 70.5 h is -7.29%.

Turning to `CC(C)CNc1c(NCc2ccco2)c(=O)c1=O`, the cytotoxicity at 70.5 h is -11.5%.

As to `COCCN1C[C@@H]2CN(C(=O)[C@H]3CCCO3)C[C@@H]2C1=O`, the cytotoxicity at 70.5 h was -15.9%.

On to `CCCc1cc(N2CCC(NCC3(O)CCN(C)CC3)CC2)nc(C)n1`, for which the cytotoxicity at 70.5 h is -6.43%.

Consider `Cc1cc(C)c2cc(CNCC3CCCO3)c3nn(C)c(=O)n3c2c1` (centres undefined), for which the cytotoxicity at 70.5 h is -6.37%.

`CC1CCCN(CCNC(=O)c2cncnc2C(C)C)C1` (centres undefined): the cytotoxicity at 70.5 h is -4.07%.

On to `Cc1cc(C)n(CC2CCCCN2CCCS(N)(=O)=O)n1` (centres undefined), for which the cytotoxicity at 70.5 h was found to be 14%.

Regarding `CCCn1nc(C)c(-c2cncn2CCN(C)C2CCCC2)c1C`, the cytotoxicity at 70.5 h is -4.61%.

With `N#Cc1cccc(N2CCCC3(CCC(=O)N(C4CCCC4)C3)C2)n1` (centres undefined), the cytotoxicity at 70.5 h turned out to be 4.95%.

As for `Cc1cc(NCCC(=O)NC(C)C)nc(-c2ccncc2)n1`, the cytotoxicity at 70.5 h stood at 3.03%.

On to `c1nc(COCC2CC2)c2n1CCCN(CC1CC1)C2`, for which the cytotoxicity at 70.5 h was -18.3%.

Turning to `Cc1cc(CNc2ccc(-c3nc(C4CC4)no3)cn2)no1`, the cytotoxicity at 70.5 h is -4.31%.

Turning to `COc1ncc(C2(O)CCN(Cc3cccs3)CC2)c(OC)n1`, the cytotoxicity at 70.5 h is -8.54%.

Take `CC(=O)N(C)c1nc(Cn2nnnc2C2CCCC2)cs1`: the cytotoxicity at 70.5 h was 0.35%.

As to `COCCCNC(=O)Cn1nnc(-c2cc3ccccc3o2)n1`, the cytotoxicity at 70.5 h was -13.2%.

`Cc1ccc2nc(-c3cnc(N)nc3)c(C)c(C(=O)N(C)C)c2c1`: the cytotoxicity at 70.5 h amounted to 11.2%.

As to `NC(=O)CN1CCCN(C(=O)c2ccn(-c3cccc(F)c3)n2)CC1`, the cytotoxicity at 70.5 h was -7.11%.

With `CCCn1nnc(NCc2ccc(-c3ccc(Br)cc3)o2)n1`, the cytotoxicity at 70.5 h is -11.9%.

`Cc1ncc(-c2ccnc(N3CC[C@H](O)C3)n2)c(-c2cccnc2)n1`: the cytotoxicity at 70.5 h is -6.52%.

As to `COC(=O)c1cccc2nc([C@H]3CCN(CC(C)C)C3)oc12`, the cytotoxicity at 70.5 h is -4.07%.

For `c1cncc(COCC2CNCc3nccn3C2)c1` (centres undefined), the cytotoxicity at 70.5 h amounted to 3.07%.

Take `CCCn1nc(C(=O)N(C)Cc2nnc3n2CCC3)ccc1=O`: the cytotoxicity at 70.5 h is -6.95%.

Take `CC(=O)N1C[C@H](NS(=O)(=O)c2cccc(Cl)c2)[C@@H](C(C)C)C1`: the cytotoxicity at 70.5 h was -9.51%.

Consider `CC(C)c1nc(C2CCCN(C(=O)c3ccc4nncn4c3)C2)no1` (centres undefined), for which the cytotoxicity at 70.5 h was -5.81%.

For the molecule `Cc1cnn(C2CCCN(C(=O)CCCOc3cccc(F)c3)C2)c1` (centres undefined), the cytotoxicity at 70.5 h was 0.97%.

Regarding `CC(C)Cc1noc(CN2CCCC(CNS(N)(=O)=O)C2)n1` (centres undefined), the cytotoxicity at 70.5 h was -3.24%.

In the case of `N[C@H]1CN(S(=O)(=O)N2CCCC2)C[C@@H]1c1ccccc1`, the cytotoxicity at 70.5 h is -4.68%.

Take `CO[C@@H]1c2ccccc2C2(CCN(C(=O)CNS(C)(=O)=O)CC2)[C@H]1O`: the cytotoxicity at 70.5 h came to 23.4%.

In the case of `O=C(CCn1nc(C(F)(F)F)c(Br)c1C1CC1)NN1CCOCC1`, the cytotoxicity at 70.5 h is -4.82%.

`CCn1cc(-c2n[nH]c(=O)n2-c2ccc(OC)c(OC)c2)c(C)n1`: the cytotoxicity at 70.5 h was -4.02%.

Take `CCc1ccc(O)c(C(=O)N2CCN(CC(=O)N(CC)CC)CC2)c1`: the cytotoxicity at 70.5 h amounted to 1.25%.

For the molecule `COc1ccc2c(CN3CCN(Cc4cccc(F)c4)CC3)n[nH]c2c1`, the cytotoxicity at 70.5 h was -3.1%.

Turning to `Cc1ccc(CNCc2ccc(-n3nc(C)cc3C)nc2)cc1`, the cytotoxicity at 70.5 h was -6.83%.

On to `CC(=O)N1CCC2(CC1)CCN(C(=O)c1ccc(F)c(C(F)(F)F)c1)C2`, for which the cytotoxicity at 70.5 h is -7.91%.

`COc1ccc(-c2cnc(CN3CCn4c(C)nnc4C3)o2)cc1`: the cytotoxicity at 70.5 h is 22.7%.

Consider `Cc1nc([C@H]2C[C@@H]3CCN(C(=O)c4ccnnc4)C[C@H]3O2)sc1C`, for which the cytotoxicity at 70.5 h was -0.727%.

For `Cc1c(C(=O)O)nnn1Cc1cccc(C(F)(F)F)c1`, the cytotoxicity at 70.5 h was -12.7%.

Regarding `O=C(Nc1ccc(S(=O)(=O)Nc2ccccc2)cc1)N1CCCC1`, the cytotoxicity at 70.5 h is -11.6%.

With `CCOCCNC(=O)C1CCC(=O)N(CCc2ccc(Cl)cc2)C1` (centres undefined), the cytotoxicity at 70.5 h was -3.36%.

`C[C@]1(O)CCN(Cc2ncccc2F)C[C@@H]1Oc1cccc(F)c1`: the cytotoxicity at 70.5 h is -3.05%.

On to `O=C(CCn1ccccc1=O)Nc1ccc(C(=O)O)cc1`, for which the cytotoxicity at 70.5 h was -4.88%.

`Cc1ccc(CN2CCCC(c3nnc(CN4CCCCC4)n3C)C2)s1` (centres undefined): the cytotoxicity at 70.5 h worked out at 4.84%.

Turning to `Cc1nc(NC2CCCC2)cc(C2CCN2C(=O)c2cccnc2)n1` (centres undefined), the cytotoxicity at 70.5 h was -9.69%.

Regarding `COc1ncccc1CN1C[C@@H]2CN(c3ncccn3)C[C@@H]2C1`, the cytotoxicity at 70.5 h was 18.1%.

In the case of `CC(C)c1ccc(C(O)Cn2c(=O)c(C#N)cn(C3CC3)c2=O)cc1` (centres undefined), the cytotoxicity at 70.5 h is -3.45%.

With `CN(C)C(=O)N1CCN(C)c2ncccc2C1`, the cytotoxicity at 70.5 h was -7.19%.

As for `CC(O)CN1CCN(C(=O)c2cn(-c3ccccc3Cl)nn2)CC1` (centres undefined), the cytotoxicity at 70.5 h was -9.71%.

Turning to `O=C1NCC2(CCCN(Cc3ccc(F)cc3)C2)Oc2ccccc21` (centres undefined), the cytotoxicity at 70.5 h is -1.98%.

Regarding `CCC(CNC(=O)N1CCOCC2(CCOCC2)C1)c1ccccc1` (centres undefined), the cytotoxicity at 70.5 h was -5.59%.

Consider `CC(C)CNC(=O)Nc1ccc(CN2CCOC2=O)cc1`, for which the cytotoxicity at 70.5 h was -13.4%.

With `O=C(NCc1cnc2n1CCN(Cc1ccoc1)C2)c1ccno1`, the cytotoxicity at 70.5 h was -0.405%.

Regarding `O=C(COc1ccc(Cl)cc1)N1CCN(c2cnccn2)CC1`, the cytotoxicity at 70.5 h is -0.713%.

In the case of `Cc1ccc(OCc2occc2C(=O)N2C[C@@H]3[C@@H](CN(C)C)[C@@H]3C2)cc1`, the cytotoxicity at 70.5 h was -9.55%.

As for `O=C(c1cc(-c2ccco2)cs1)N1CCCC1`, the cytotoxicity at 70.5 h is -16.3%.

On to `CC(Cn1cccn1)NC(=O)NCCc1cccnc1` (centres undefined), for which the cytotoxicity at 70.5 h was -8.85%.

As for `O=C(Nc1cc(-c2cccnc2)no1)C1CCC1`, the cytotoxicity at 70.5 h was -13%.

As for `O=C(c1cccs1)N1CCc2ncc(Cn3cncn3)n2CC1`, the cytotoxicity at 70.5 h is -13.5%.

For the molecule `Cc1nc(CN2CCCC2c2c(C)nn(C)c2Cl)no1` (centres undefined), the cytotoxicity at 70.5 h was -1.31%.

For `O=C(Nc1ccccc1Cl)N1CCN(CC2CC2)[C@@H]2CS(=O)(=O)C[C@@H]21`, the cytotoxicity at 70.5 h was 16.8%.

As for `Cc1cc(C)n(CC(C)CNC(=O)NCc2ccco2)n1` (centres undefined), the cytotoxicity at 70.5 h is -10.4%.

Take `CNC(=O)CN(C)C(=O)Cc1csc(C(C)C)n1`: the cytotoxicity at 70.5 h was 0.629%.

On to `c1cncc(-c2noc(CNCC3CCCN3c3cccnn3)n2)c1` (centres undefined), for which the cytotoxicity at 70.5 h is -2.21%.

Turning to `CC(C)(N)CNS(=O)(=O)Cc1cccc2cccnc12`, the cytotoxicity at 70.5 h was determined as 1.51%.

Regarding `O=C(NCc1c(F)cccc1Cl)c1cc(CN2CCCC(O)C2)on1` (centres undefined), the cytotoxicity at 70.5 h is -13.8%.

As for `CSc1nc(N)cc(N2C[C@@H]3CC[C@H](C2)N(CC2CC2)C3=O)n1`, the cytotoxicity at 70.5 h was found to be 3.27%.

For `CCOC(=O)CSc1ccc(-c2nc(C)no2)cn1`, the cytotoxicity at 70.5 h came to 1.96%.

As to `c1cnn(CC2CN(Cc3csc(C4CCCCC4)n3)CCO2)c1` (centres undefined), the cytotoxicity at 70.5 h was -0.469%.

With `c1ccc(Oc2cccc(OC34CCCN(CC3)C4)c2)cc1` (centres undefined), the cytotoxicity at 70.5 h is -12%.

`Cc1ccsc1[C@@H]1CCN(C(=O)Cn2cc3ccccc3n2)C[C@H]1O`: the cytotoxicity at 70.5 h is 15.1%.

On to `N#Cc1ccccc1OCCN1CCCC(c2noc(C3CC3)n2)C1` (centres undefined), for which the cytotoxicity at 70.5 h is 3.57%.

With `CCCN1CCC(NCc2ccncc2)CC1`, the cytotoxicity at 70.5 h was -5.69%.

Regarding `NC(=O)Nc1cccc(F)c1C(=O)NC1CCCC1`, the cytotoxicity at 70.5 h is -3.68%.

As for `Cc1ccccc1C(N)c1ccncc1` (centres undefined), the cytotoxicity at 70.5 h is -3.67%.

With `CNC(=O)C1(c2cnccn2)CCCN1C(=O)c1cccnc1OC` (centres undefined), the cytotoxicity at 70.5 h is -9.36%.

Turning to `CC(CC(=O)NS(C)(=O)=O)C1CCCCC1` (centres undefined), the cytotoxicity at 70.5 h was -13.9%.

In the case of `CSCCC(=O)NS(=O)(=O)c1ccc2c(c1)OCCO2`, the cytotoxicity at 70.5 h was -7.91%.

Take `Cc1ccc(CC(NC(=O)CN(C)C2CC2)c2ccccn2)cc1` (centres undefined): the cytotoxicity at 70.5 h was -1.04%.

`Cc1nc(CN2CCCC(N(C)CCc3cccs3)C2)no1` (centres undefined): the cytotoxicity at 70.5 h was found to be 8.18%.

Turning to `CC(C)CS(=O)(=O)N1CCC2(CN(c3ccsc3)C(=O)CN2C)C1` (centres undefined), the cytotoxicity at 70.5 h is -111%.

For the molecule `O=C(N[C@@H]1CCN(c2ncc(Cl)cc2Cl)C[C@H]1O)c1cnccn1`, the cytotoxicity at 70.5 h was -2.1%.

For the molecule `COCC1CN(C(=O)CS(C)(=O)=O)Cc2ncn(CC3CC3)c21` (centres undefined), the cytotoxicity at 70.5 h was determined as 1.88%.

In the case of `CN1CCCCC12CCN(c1nncs1)C2` (centres undefined), the cytotoxicity at 70.5 h is -9.3%.

For `CC(C)Oc1ccc(C(=O)Cn2cnnc2[S+](C)[O-])cc1` (centres undefined), the cytotoxicity at 70.5 h is -7.07%.

Regarding `Cc1nn(C)c(C)c1CN1CCNCC1`, the cytotoxicity at 70.5 h is -4.45%.

Regarding `O=C(CCCc1cn[nH]c1)N1C[C@@H](CN2CCCC2)C[C@H](CO)C1`, the cytotoxicity at 70.5 h was -6.82%.

For the molecule `CCCN(C)CC1CCN(c2ccc(Br)c(C)n2)C1` (centres undefined), the cytotoxicity at 70.5 h was found to be 4.09%.

Consider `CNC(=O)[C@@H](c1ccccc1F)N1CCC[C@H]1C(=O)NC1CCOCC1`, for which the cytotoxicity at 70.5 h is -12.5%.

Turning to `CCc1oc(C(=O)NCCc2cc(O)nc(C)n2)cc1CN1CCCC1`, the cytotoxicity at 70.5 h is -6.98%.

For the molecule `COC(=O)N1CCCN(C(=O)c2cccc3cccnc23)CC1`, the cytotoxicity at 70.5 h was -7.61%.

Take `O=C(CCc1cccc(F)c1F)N1CCN(Cc2ccco2)CC1`: the cytotoxicity at 70.5 h was -8.06%.

For `CC(C)NC(=O)N1CCC(c2nnc3n2CCNC3)CC1`, the cytotoxicity at 70.5 h was 16.3%.
